Measured values taken from ChEMBL document CHEMBL2203083, “Facile synthesis and anticancer activity of C-10 non-acetal deoxoartemisinin dimers” (Bioorg Med Chem Lett, 2012).

These molecules were tested on Caco-2 (assay: Cytotoxicity against human Caco2 cells assessed as cell viability after 48 hrs by MTT assay). Settings: Caco-2, 48 h.
Type: functional, cell-based

Compound	IC50 [µM]
C[C@H]1[C@@H](CC(=O)N(CCNC(=O)[C@@H](N)CCCCN)CC(=O)NCCN(CC(=O)OC(C)(C)C)C(=O)C[C@H]2O[C@@H]3O[C@@]4(C)CC[C@H]5[C@H](C)CC[C@@H]([C@H]2C)[C@@]35OO4)O[C@@H]2O[C@@]3(C)CC[C@H]4[C@H](C)CC[C@@H]1[C@@]24OO3	3.58
C[C@H]1[C@@H](CC(=O)N(CCNC(=O)OCC2c3ccccc3-c3ccccc32)CC(=O)OC(C)(C)C)O[C@@H]2O[C@@]3(C)CC[C@H]4[C@H](C)CC[C@@H]1[C@@]24OO3	5.36
C[C@H]1[C@@H](CC(=O)N(CCNC(=O)[C@H](CCCCNC(=O)OC(C)(C)C)NC(=O)OCC2c3ccccc3-c3ccccc32)CC(=O)OC(C)(C)C)O[C@@H]2O[C@@]3(C)CC[C@H]4[C@H](C)CC[C@@H]1[C@@]24OO3	12
C[C@H]1[C@@H](CC(=O)N(CCNC(=O)[C@H](CCCCN)NC(=O)OCC2c3ccccc3-c3ccccc32)CC(=O)OC(C)(C)C)O[C@@H]2O[C@@]3(C)CC[C@H]4[C@H](C)CC[C@@H]1[C@@]24OO3	4.38
C[C@H]1[C@@H](CC(=O)N(CCNC(=O)[C@@H](N)CCCCN)CC(=O)OC(C)(C)C)O[C@@H]2O[C@@]3(C)CC[C@H]4[C@H](C)CC[C@@H]1[C@@]24OO3	14.7
C[C@H]1[C@@H](CC(=O)N(CCNC(=O)OCC2c3ccccc3-c3ccccc32)CC(=O)NCCN(CC(=O)OC(C)(C)C)C(=O)C[C@H]2O[C@@H]3O[C@@]4(C)CC[C@H]5[C@H](C)CC[C@@H]([C@H]2C)[C@@]35OO4)O[C@@H]2O[C@@]3(C)CC[C@H]4[C@H](C)CC[C@@H]1[C@@]24OO3	2.87
C[C@H]1[C@@H](CC(=O)N(CCNC(=O)[C@H](CCCCNC(=O)OC(C)(C)C)NC(=O)OCC2c3ccccc3-c3ccccc32)CC(=O)NCCN(CC(=O)OC(C)(C)C)C(=O)C[C@H]2O[C@@H]3O[C@@]4(C)CC[C@H]5[C@H](C)CC[C@@H]([C@H]2C)[C@@]35OO4)O[C@@H]2O[C@@]3(C)CC[C@H]4[C@H](C)CC[C@@H]1[C@@]24OO3	8.03
C[C@H]1[C@@H](CC(=O)N(CCNC(=O)[C@H](CCCCN)NC(=O)OCC2c3ccccc3-c3ccccc32)CC(=O)NCCN(CC(=O)OC(C)(C)C)C(=O)C[C@H]2O[C@@H]3O[C@@]4(C)CC[C@H]5[C@H](C)CC[C@@H]([C@H]2C)[C@@]35OO4)O[C@@H]2O[C@@]3(C)CC[C@H]4[C@H](C)CC[C@@H]1[C@@]24OO3	2.04
C[C@H]1[C@@H](O)O[C@@H]2O[C@@]3(C)CC[C@H]4[C@H](C)CC[C@@H]1[C@@]24OO3 [ARTENIMOL]	26.9
